Results as given in patent publication US12343318B2, “Use of compound or medicinal derivative thereof in inhibiting AIM2 protein activity” (Liangdan Sun, priority 2023, dated 2025).

Tests used:
[1] = system: IL-1β mRNA in HaCaT cells; assay: Real-time fluorescence PCR of IL-1β mRNA in HaCaT cells stimulated by OligodA-T; format: cell-based; conditions: 10 uM, 24 hours
Method: The protective ability of 44 compounds screened above against cell pyroptosis of HaCaT cells stimulated by OligodA-T is evaluated by the real-time fluorescent quantitative polymerase chain reaction (PCR) detection of IL-1β mRNA in the stimulated cells. […] Positive control (PC) and negative control (NC) are set in the experimental group. An inclusion of Lip3000 (Lipofectamine™ 3000 Transfection Reagent) and OligodA-T (OligodA-T: Lip3000:P3000=1:1:25, a concentration of OligodA-T is 1 microgram per […] abbreviated as ug/mL) is used to transfect HaCat cells. […] Each experimental group is incubated in a cell incubator containing 5% CO2 for 24 hours at 37° C., and the cells are collected for real-time fluorescence PCR detection.
• (1) A positive control (PC), a negative control (NC) and respective treatment groups are set. […] The HaCat cells are co-transfected with inclusions of Lip3000-OligodA-T at gradient doses (0.1 uM, 1 uM, 5 uM, 10 uM and 25 uM) of T6S1683 in the respective treatment groups. • (2) The positive control (PC), the negative control (NC) and the respective treatment groups are incubated in a cell incubator containing 5% CO2 at 37° C. for 24 hours, and the cells are collected for real-time fluorescence PCR detection to observe the effects of different doses of inhibitors on the activation of AIM2 pathway in the HaCaT cells.

[2] = target: T1, human AIM2 protein (Homo sapiens, UniProt O14862); assay: Affinity by SPR (Biacore, CM5 chip amino-coupling), human AIM2; conditions: human full-length AIM2 protein, read-out: binding constant KD
T1 construct: a human full-length AIM2 protein is expressed and purified firstly by pET28A vector; made in house
T1 sequence (O14862 1-343): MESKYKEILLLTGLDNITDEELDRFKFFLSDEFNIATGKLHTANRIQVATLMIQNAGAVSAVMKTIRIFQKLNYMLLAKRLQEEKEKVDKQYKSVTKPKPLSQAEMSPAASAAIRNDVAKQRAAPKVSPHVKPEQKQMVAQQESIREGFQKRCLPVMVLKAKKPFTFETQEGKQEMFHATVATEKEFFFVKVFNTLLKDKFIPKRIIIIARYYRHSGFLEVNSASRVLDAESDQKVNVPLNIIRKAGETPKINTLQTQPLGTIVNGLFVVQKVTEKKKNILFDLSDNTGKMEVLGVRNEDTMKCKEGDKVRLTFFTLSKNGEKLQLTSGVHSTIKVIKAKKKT
Method: In the embodiment of the disclosure, the affinity between T6S1683 and human AIM2 protein is detected. Specifically, a human full-length AIM2 protein is expressed and purified firstly by pET28A vector, and then the affinity is determined by CM5 chip amino-coupling method through a surface-plasmon resonance (SPR) method of Biacore.

[3] = target: T2, mouse AIM2 protein (Mus musculus, UniProt Q91VJ1); assay: Affinity by SPR (Biacore, CM5 chip amino coupling), mouse AIM2; conditions: mouse full-length AIM2 protein, read-out: binding constant KD
T2 construct: a mouse full-length AIM2 protein is expressed and purified firstly by pET28A vector; made in house
T2 sequence (Q91VJ1 1-354): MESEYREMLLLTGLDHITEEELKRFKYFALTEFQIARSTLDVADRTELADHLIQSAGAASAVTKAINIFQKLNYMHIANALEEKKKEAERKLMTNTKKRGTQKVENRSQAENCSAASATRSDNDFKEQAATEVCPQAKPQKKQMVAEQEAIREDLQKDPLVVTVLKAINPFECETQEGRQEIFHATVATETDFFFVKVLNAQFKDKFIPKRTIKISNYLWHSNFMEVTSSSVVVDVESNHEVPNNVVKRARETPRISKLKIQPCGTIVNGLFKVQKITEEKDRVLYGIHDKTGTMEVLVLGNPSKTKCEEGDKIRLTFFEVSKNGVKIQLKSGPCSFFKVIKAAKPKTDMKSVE
Method: In the embodiment of the disclosure, the affinity between T6S1683 and mouse AIM2 protein is detected. Specifically, a mouse full-length AIM2 protein is expressed and purified firstly by pET28A vector, and then the affinity is determined by CM5 chip amino coupling method by the SPR method of Biacore.

[4] = system: TCRγ/CD3^+RORγt cells in the lymphocytes of mouse skin; assay: Flow cytometry of skin lymphocytes of IMQ mice; format: in vivo, C57/BL6 mice; conditions: 5 mg/kg, smeared on skin
Method: (§1) In the embodiment of the disclosure, dimethyl sulfoxide (DMSO) is used to dissolve T6S1683 powder, the powder is weighed according to different dosage, then diluted with β-cyclodextrin, and a final concentration of DMSO shall not exceed 5%. The dose gradients of T6S1683 set are 0 mg/kg, 1 mg/kg, 2.5 mg/kg, 5 mg/kg and 10 mg/kg respectively. Each mouse is calculated as 20 grams (g), and 0 mg/kg, 1 mg/kg, 2.5 mg/kg, 5 mg/kg and 10 mg/kg of T6S1683 are administered respective mice every day.
(§2) Seven-week-old C57/BL6 mice are selected, fed and modeled in a […] (SPF) environment. The experimental groups are as follows. […]
(§3) Six mice in each group above, and the mice are shaved back hair to make an exposed skin reach 4 square centimeters. […] The mouse skins are scored every day, the mice are sacrificed on Day 6, and skin tissue is taken for a series of tests.
Next, skin lymphocytes of the mice in each group (proportion of TCRγ/CD3^+RORγt cells in the lymphocytes of mouse skin, which are the main effector cells mediated by AIM2 pathway in psoriasis and can secrete a large amount of IL-17 cytokines to aggravate psoriasis) are detected by flow cytometry.

[5] = system: AIM2 downstream protein in HaCat cells; assay: AIM2 downstream protein expression in HaCaT cells (Western Blot, ELISA); format: cell-based; conditions: 10 uM
[6] = system: HaCaT cells; assay: Cell state (pyroptosis) of OligodA-T transfected HaCaT cells under microscope; format: cell-based; conditions: 10 uM, microscope 100×
[7] = system: IMQ mice; assay: IMQ psoriasis mouse model: PASI scores, skin and pathological phenotypes; format: in vivo, C57/BL6 mice
Method: as §1
Seven-week-old C57/BL6 mice are selected, fed and modeled in a […] (SPF) environment. The experimental groups are as follows. (a) mouse skin smeared with IMQ and 0 mg/kg of T6S1683; (b) mouse skin smeared with IMQ and 1 mg/kg of T6S1683; (c) mouse skin smeared with IMQ and 2.5 mg/kg of T6S1683; (d) mouse skin smeared with IMQ and 5 mg/kg of T6S1683; (e) mouse skin smeared with IMQ and 10 mg/kg of T6S1683; (f) mouse skin smeared with Vaseline and 0 mg/kg of T6S1683; (g) mouse skin smeared with Vaseline and 1 mg/kg of T6S1683; (h) mouse skin smeared with Vaseline and 2.5 mg/kg of T6S1683; (i) mouse skin smeared with Vaseline and 5 mg/kg of T6S1683; and (j) mouse skin smeared with Vaseline and 10 mg/kg of T6S1683. (Note: the daily dosage of IMQ in groups (a), (b), (c), (d) and (e) is 62.5 mg/mouse, and the daily dosage of Vaseline in groups (f), (g), (h), (i) and (j) is 62.5 mg/mouse.)
Six mice in each group above, and the mice are shaved back hair to make an exposed skin reach 4 square centimeters. A start date of the experiment is set as Day 0 and an end date is set as Day 6. From Day 0 to Day 5, 500 μL medicine solution is applied daily and evenly smeared mouse skin to absorb, with 500 uL applied in the morning at a dose of 150 uL, at noon at 200 uL, and at night at 150 uL. […] The mouse skins are scored every day, the mice are sacrificed on Day 6, and skin tissue is taken for a series of tests. […]

[8] = system: IL-1β gene expression in the mouse skin; assay: Transcription levels of AIM2 pathway genes in skin of IMQ mice; format: in vivo, C57/BL6 mice; conditions: 5 mg/kg, smeared on skin
Method: as §1, §2, §3

COc1cc(/C=C/C(=O)CC(=O)/C=C/c2ccc(O)cc2)ccc1O [T6S1683, 1,6-heptadiene-3,5-dione,1-(4-hydroxy-3-methoxyphenyl)-7-(4-hydroxyphenyl)-,(1E, 6E)-]
IL-β transcription levels compared to the PC group ([1]; among 5 dose gradients (0.1, 1, 5, 10, 25 uM)): reduced IL-β transcription levels in the HaCat cells the most
inhibitory effect on IL-1β mRNA compared with the positive control ([1]; screening of 44 compounds, OligodA-T 1 ug/mL): most significant inhibitory effect
Kd [2]: 1.56 µM
Kd [3]: 5.12 µM
proportion of TCRγ/CD3^+RORγt compared with IMQ mice without T6S1683 [4]: significantly lower
expression of AIM2 downstream protein (Western Blot) [5]: slightly decreases
secretion of IL-1β (ELISA) [5]: inhibitory effect
cell state [6]: close to that of the NC group
effect on inflammatory phenotype of IMQ mice ([7]; 1 mg/kg, smeared on skin): no difference
reduction effect on inflammatory phenotype of IMQ mice ([7]; 5 mg/kg, smeared on skin): the most significant
inflammatory phenotype of IMQ mice ([7]; three doses, smeared on skin daily Day 0 to Day 5): reduced the inflammatory phenotype of IMQ mice to varying degrees
IL-1β gene expression level in mouse skin [8]: significantly down-regulated
